# In ChEMBL document CHEMBL1154028, “Pyrazole acids as niacin receptor agonists for the treatment of dyslipidemia” (Bioorg Med Chem Lett, 2009):
# Activity calls are given as the source filed them. The calls are words filed in the database; no cut-off is given here.
# Tests used:
# Rattus norvegicus [1] = assay: Toxicity in rat assessed as changes in rat ear blood perfusion upto 30 mg/kg, sc; assay type: organism-based; set-up: dose 30 mg/kg, route subcutaneous; conditions: in vivo
# Rattus norvegicus [2] = assay: Decrease in blood free fatty acid level in rat at 3 mg/kg, po; assay type: functional; set-up: scale not given: the % may be the effect or the level left
# Rattus norvegicus [3] = assay: Decrease in blood free fatty acid level in po dosed rat
# Blood = assay: Drug level in rat blood at 30 mg/kg, sc; assay type: ADME, organism-based; set-up: dose 30 mg/kg, route subcutaneous; conditions: in vivo, read-out: Drug uptake
# [4] = molecular target: Hydroxycarboxylic acid receptor 2 (Homo sapiens) (UniProt Q8TDS4); assay: Displacement of [3H]niacin from human niacin receptor expressed in […] cells at 25 uM in presence of 5% human serum; assay type: cell-based
# [5] = molecular target: Hydroxycarboxylic acid receptor 2 (Homo sapiens) (UniProt Q8TDS4); assay: Displacement of [3H]niacin from human niacin receptor expressed in […] cells at 25 uM in absence of 5% human serum; assay type: cell-based
# Rattus norvegicus [6] = assay: Decrease in blood free fatty acid level in rat at 100 mg/kg, po after 20 mins; assay type: functional, organism-based; set-up: dose 100 mg/kg
# [7] = Plasma clearance in mouse at 1 mg/kg, iv or 2 mg/kg, po; assay type: ADME, organism-based
# [8] = Oral bioavailability in mouse at 2 mg/kg; assay type: ADME, organism-based; conditions: in vivo
# [9] = Cmax in mouse at 1 mg/kg, iv or 2 mg/kg, po; assay type: ADME, organism-based; conditions: in vivo
# [10] = Half life in mouse at 1 mg/kg, iv or 2 mg/kg, po; assay type: ADME, organism-based; conditions: in vivo
# [11] = Volume of distribution at steady state in mouse at 1 mg/kg, iv or 2 mg/kg, po; assay type: ADME, organism-based; conditions: in vivo, read-out: Vdss
# Hydroxycarboxylic acid receptor 2 (Homo sapiens), sequence (Q8TDS4 whole entry): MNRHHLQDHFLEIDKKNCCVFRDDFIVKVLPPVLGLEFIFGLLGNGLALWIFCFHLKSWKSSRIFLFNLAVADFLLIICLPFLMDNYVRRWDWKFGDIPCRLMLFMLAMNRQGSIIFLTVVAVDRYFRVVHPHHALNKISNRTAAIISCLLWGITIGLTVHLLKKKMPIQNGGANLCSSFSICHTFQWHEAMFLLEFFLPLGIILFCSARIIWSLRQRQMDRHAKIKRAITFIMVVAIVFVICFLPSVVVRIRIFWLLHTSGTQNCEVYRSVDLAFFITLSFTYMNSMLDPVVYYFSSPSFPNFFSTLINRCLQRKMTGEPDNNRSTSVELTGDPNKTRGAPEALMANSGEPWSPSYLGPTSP
structure (smiles),measurement,setting,value
Br.O=C(O)c1n[nH]c2c1CC(c1cc(F)ccc1F)CC2 (centres undefined),Activity,Rattus norvegicus [1],Non-toxic
same,Activity,Rattus norvegicus [2],50%
same,EC50,Rattus norvegicus [3],3000 nM
same,concentration,Blood,135 µM
Fc1ncccc1C1CCC2=C(C1)C(=C1N=NN=N1)N=N2 (centres undefined),Activity,[4],75%
same,Activity,[5],40%
O=C(O)c1n[nH]c2c1CC(c1cc(F)ccc1F)CC2 (centres undefined),Activity,Rattus norvegicus [6],Active
same,Activity,[4],84%
same,Activity,[5],56%
O=C(O)c1n[nH]c2c1CC(c1cccnc1F)CC2 (racemic),clearance,[7],21 mL/min/kg
same,bioavailability,[8],47%
same,Activity,[4],88%
same,Activity,[5],90%
same,Cmax,[9],2300 nM
same,half-life,[10],156 min
same,Vd,[11],2.4 L/kg
O=C(O)c1n[nH]c2c1CC(c1cc(F)ccc1F)CC2 (racemic),clearance,[7],8.3 mL/min/kg
same,bioavailability,[8],53%
same,Cmax,[9],3300 nM
same,half-life,[10],174 min
same,Vd,[11],1.4 L/kg
Fc1ccc(F)c(C2CCc3[nH]nc(-c4nnn[nH]4)c3C2)c1 (racemic),Activity,[4],17%
O=C(O)c1n[nH]c2c1CC(c1ccccc1)CC2 (racemic),Activity,[4],35%
same,Activity,[5],19%
O=C(O)c1n[nH]c2c1CC(c1ccccc1Cl)CC2 (racemic),Activity,[4],20%
O=C(O)c1n[nH]c2c1CC(c1ccccc1F)CC2 (racemic),Activity,[4],18%
O=C(O)c1n[nH]c2c1CC(c1ccnc(F)c1)CC2 (racemic),Activity,[4],69%
same,Activity,[5],60%
O=C(O)c1n[nH]c2c1CCC(c1ccccc1)C2 (racemic),Activity,[5],63%
